Entries after “also recorded” stand apart in the source; their conditions may differ. Structures can show the parent of a compound that is named as a salt. No end group written: not given here.
How the values were obtained:
melanophores = assay type: cell-based
chromatophores [1] = tested on: chromatophores
[2] = tested on: chromatophore/bacterial cell; assay type: cell-based
chromatophores [3] = assay: cells; conditions: read-out: Threshold concentration PPM
chromatophores [4] = assay type: cell-based
erythrophores = assay type: cell-based
iridophores = assay type: cell-based
[5] = tested on: chromatophore/protozoal cell; assay type: cell-based
[6] = tested on: chromatophore/neuronal cell; assay type: cell-based
[7] = tested on: chromatophore/fungal cell; assay type: cell-based
[8] = tested on: Hemichromis bimaculatus chromatophores; assay type: cell-based
Betta chromatophores = assay type: cell-based
[9] = tested on: Betta splendens chromatophores; assay type: cell-based
[10] = tested on: Betta splendens erythrophores; assay type: cell-based

## O=S(=O)(F)Cc1ccccc1 [PMSF]
melanophores
  Chromatophore response Melanophores: Imp.

## CN(C)[C@@H]1C(O)=C(C(N)=O)C(=O)[C@@]2(O)C(O)=C3C(=O)c4c(O)cccc4[C@@](C)(O)[C@H]3C[C@@H]12 [Tetrasycline]
Chromatophores [1]
  Response time Hr.: XX (key: X=1-6 hr; XX=6-24 hr)
  Threshold concentration PPM: X (key: X=1 to 100 PPM; XX=100 to 1000 PPM)
[2]
  Chromatophore response 2-Cell Cytosensor (second cell type included): Normal

## C[C@]12CCC(=O)C=C1CC[C@@H]1[C@@H]2[C@@H](O)C[C@@]2(C)[C@H]1CC[C@]2(O)C(=O)CO [Hydrocortisone]
Chromatophores [3]
  minimal effective concentration: 1 to 100 µg/mL
melanophores
  Chromatophore response Melanophores: Hyp.D.

## N [Ammonium]
Chromatophores [1]
  Chromatophore response (cell spans the chromatophore columns, cell type not assigned): Imp. (FS)

## Cn1c(=O)c2c(ncn2C)n(C)c1=O [Caffeine]
Chromatophores [4]
  concentration at which chromatophores respond: 100 µM

## [Ag] [Ag]
Chromatophores [1]
  Chromatophore response (cell spans the chromatophore columns, cell type not assigned): Imp. (FS)

## COP(=O)(OC)C(O)C(Cl)(Cl)Cl (stereo not drawn) [Trichlorfon]
Chromatophores [1]
  Threshold concentration PPT: X (key: X=1 PPT or higher)

## Cc1cc(C(C)(C)C)c(O)c(C)c1CC1=NCCN1 [Oxymetazoline]
erythrophores
  Chromatophore response Erythrophores: Aggr.

## CCCCCCC(C)(C)c1ccc([C@@H]2C[C@H](O)CC[C@H]2CCCO)c(O)c1 [Cannabinoid CP-55940, CP-55940]
Chromatophores [1]
  Response time Hr.: X (key: X=1-6 hr; XX=6-24 hr)
Chromatophores [3]
  minimal effective concentration: 100 to 1000 µg/mL

## Mevinphos
Chromatophores [1]
  Threshold concentration PPT: X (key: X=1 PPT or higher)
erythrophores
  Chromatophore response Erythrophores: Imp. (FS)
iridophores
  Chromatophore response Iridophores: Hue change, then Imp.
melanophores
  Chromatophore response Melanophores: Imp.

## C=C(C=O)C[C@@H]1C[C@H](O)[C@]2(C)O[C@@H]3C[C@@H]4O[C@@H]5C[C@]6(C)O[C@]7(C)CC[C@@H]8O[C@@H]9C[C@]%10(C)O[C@@H]%11C(C)=CC(=O)O[C@H]%11C[C@H]%10O[C@H]9C[C@@H](C)[C@H]8O[C@H]7C[C@H]6O[C@H]5C/C=C\[C@H]4O[C@H]3C[C@H]2O1 [Brevetoxin]
Chromatophores [1]
  Chromatophore response (cell spans the chromatophore columns, cell type not assigned): Aggr.

## Cc1ncc([N+](=O)[O-])n1CCO [Metronidazole]
[5]
  Chromatophore response 2-Cell Cytosensor (second cell type included): Normal

## COP(=O)(OC)OC=C(Cl)Cl [Dichlorvos]
Chromatophores [1]
  Threshold concentration PPT: X (key: X=1 PPT or higher)

## CCN(CC)CCCC(C)Nc1ccnc2cc(Cl)ccc12 (stereo not drawn) [Chloroquine]
[5]
  Chromatophore response 2-Cell Cytosensor (second cell type included): Normal

## [Ni] [Ni]
Chromatophores [1]
  Chromatophore response (cell spans the chromatophore columns, cell type not assigned): Imp. (FS)

## C=CC[C@@H](CC/C(C)=C/C=C/CC/C=C\[C@@H]1CSC([C@@H]2C[C@@H]2C)=N1)OC [Curacin A]
Chromatophores [1]
  Chromatophore response (cell spans the chromatophore columns, cell type not assigned): Aggr. and Imp. (FS)

## O=C(O)c1ccccc1O [Salicylate]
Chromatophores [1]
  Chromatophore response (cell spans the chromatophore columns, cell type not assigned): Imp. (FS)

## OO [Hydrogen peroxide]
Chromatophores [1]
  Chromatophore response (cell spans the chromatophore columns, cell type not assigned): Imp. (FS)

## c1ccc2c(c1)CCCC2C1=NCCN1 (stereo not drawn) [Tetrahydrozoline]
erythrophores
  Chromatophore response Erythrophores: Aggr.

## [H]/N=C(/N)N[C@H]1[C@H](O)[C@@H](O)[C@H](O[C@@H]2O[C@@H](C)[C@](O)(C=O)[C@H]2O[C@@H]2O[C@@H](CO)[C@H](O)[C@@H](O)[C@@H]2NC)[C@@H](N/C(N)=N\[H])[C@@H]1O [Streptomycin]
[2]
  Chromatophore response 2-Cell Cytosensor (second cell type included): Normal

## Latrotoxin
erythrophores
  Chromatophore response Erythrophores: Aggr
[6]
  Chromatophore response 2-Cell Cytosensor (second cell type included): Aggr.

## Cc1ccc(N(CC2=NCCN2)c2cccc(O)c2)cc1 [Phentolamine]
Chromatophores [1]
  Chromatophore response (cell spans the chromatophore columns, cell type not assigned): Blocks norepinephrine
  Threshold concentration PPB: XX (key: X=1 to 100 PPB; XX=100 to 1000 PPB)

## COC(=O)[C@@H]1[C@H]2C[C@H]3c4[nH]c5ccccc5c4CCN3C[C@@H]2CC[C@@H]1O [Yohimbine]
Chromatophores [1]
  Chromatophore response (cell spans the chromatophore columns, cell type not assigned): Blocks norepinephrine
  Threshold concentration PPB: X (key: X=1 to 100 PPB; XX=100 to 1000 PPB)

## CC(COc1ccccc1)N(CCCl)Cc1ccccc1 (stereo not drawn) [Phenoxybenzamine, Phenoxy-benzamine]
Chromatophores [1]
  Chromatophore response (cell spans the chromatophore columns, cell type not assigned): Blocks norepinephrine
  Threshold concentration PPB: X (key: X=1 to 100 PPB; XX=100 to 1000 PPB)

## C[N+](C)(C)CCOC(N)=O [Carbachol]
[6]
  Chromatophore response 2-Cell Cytosensor (second cell type included): Erythr. Aggr.

## melanophore concentrating hormone [MCH]
Chromatophores [1]
  Chromatophore response (cell spans the chromatophore columns, cell type not assigned): Aggr.
  Threshold concentration PPB: X (key: X=1 to 100 PPB; XX=100 to 1000 PPB)

## MSH
Chromatophores [1]
  Threshold concentration PPB: X (key: X=1 to 100 PPB; XX=100 to 1000 PPB)
iridophores
  Chromatophore response Iridophores: Hue changes (isolated
melanophores
  Chromatophore response Melanophores: Disp.
Chromatophores [4]
  concentration at which chromatophores respond: 0.001 µM

## Penicillin
[2]
  Chromatophore response 2-Cell Cytosensor (second cell type included): Normal

## C[C@@H]1[C@H](O)[C@@H](C)/C=C/C=C/C=C/C=C/C=C/C=C/C=C/[C@H](O[C@@H]2O[C@H](C)[C@@H](O)[C@H](N)[C@@H]2O)C[C@@H]2O[C@](O)(C[C@@H](O)C[C@@H](O)[C@H](O)CC[C@@H](O)C[C@@H](O)CC(=O)O[C@H]1C)C[C@H](O)[C@H]2C(=O)O [Amphotericin B]
[7]
  Chromatophore response 2-Cell Cytosensor (second cell type included): Normal

## Cholera toxin
Chromatophores [1]
  Threshold concentration PPB: X (key: X=1 to 100 PPB; XX=100 to 1000 PPB)
[8]
  change of appearance / color of chromatophores: change the appearance
  erythrophore response upon challenge by norepinephrine: impaired
Chromatophores [4]
  color class of chromatophores with selective sensitivity: erythrophores
Betta chromatophores
  chromatophore pigment response: Pigment aggregation is evident
  effect of pre-incubation on norepinephrine-induced pigment aggregation: impaired pigment aggregation in response to NE
[9]
  lowest concentration at which inhibition of norepinephrine induced pigment aggregation is detected: 1 ng/m

## c1ccc2c(CC3=NCCN3)cccc2c1 [Naphazoline]
erythrophores
  Chromatophore response Erythrophores: Aggr.

## NC[C@H](O)c1ccc(O)c(O)c1 [Norepinephrine]
Chromatophores [1]
  Threshold concentration PPB: X (key: X=1 to 100 PPB; XX=100 to 1000 PPB)
[8]
  change of appearance / color of chromatophores: change the appearance
erythrophores
  Chromatophore response Erythrophores: Aggr.
Betta chromatophores
  chromatophore pigment response: aggregation of chromatophore pigment is apparent

## [Cu] [Cu]
Chromatophores [1]
  Chromatophore response (cell spans the chromatophore columns, cell type not assigned): Imp. (FS)

## Nc1ncnc2c1ncn2[C@@H]1O[C@H](COP(=O)(O)OP(=O)(O)OP(=O)(O)O)[C@@H](O)[C@H]1O [ATP]
[6]
  Chromatophore response 2-Cell Cytosensor (second cell type included): Erythr. Aggr.

## COC(=O)C1=C(C)NC(C)=C([N+](=O)[O-])C1c1ccccc1C(F)(F)F (stereo not drawn) [Bay K8644]
[10]
  erythrophore pigment response to direct application: neither the aggregation nor dispersion of erythrophore pigment

## Substance P (RPKPQQFFGLM; ends and bridges not checked; UniProt P20366 58-68, looked up)
iridophores
  Chromatophore response Iridophores: Hue changes (FS)

## c1ccc2cc3c(ccc4ccccc43)cc2c1 [1,2-Benzanthracene]
Chromatophores [1]
  Chromatophore response (cell spans the chromatophore columns, cell type not assigned): Imp.

## C=C[C@@]1(C)CC(=O)[C@]2(O)[C@@]3(C)[C@@H](O)CCC(C)(C)[C@@H]3[C@H](O)[C@H](OC(C)=O)[C@@]2(C)O1 [Forskolin]
Chromatophores [4]
  concentration at which chromatophores respond: 10000 µM

## C=C[C@H]1C[N@@]2CC[C@H]1C[C@H]2[C@H](O)c1ccnc2ccc(OC)cc12 [Quinine sulfate]
[5]
  Chromatophore response 2-Cell Cytosensor (second cell type included): Normal

## CC(=O)OCOC(=O)CN(CC(=O)OCOC(C)=O)c1ccccc1OCCOc1ccccc1N(CC(=O)OCOC(C)=O)CC(=O)OCOC(C)=O [BAPTA/AM]
[10]
  erythrophore pigment response: pigment dispersion

## CCn1cc(C(=O)O)c(=O)c2ccc(C)nc21 [Nalidixic acid]
[2]
  Chromatophore response 2-Cell Cytosensor (second cell type included): Normal

## CCOP(=O)(OCC)Oc1ccc([N+](=O)[O-])cc1 [Paraoxon]
Chromatophores [1]
  Threshold concentration PPM: XX (key: X=1 to 100 PPM; XX=100 to 1000 PPM)

## Clc1cccc(Cl)c1N=C1NCCN1 [Clonidine]
erythrophores
  Chromatophore response Erythrophores: Aggr.

## C[C@H](CCC(=O)O)C[C@H](C)C[C@H](C)C(=O)/C=C(\O)[C@H](C)C[C@H](C)C/C=C/[C@@H](C)[C@@H](O)[C@@H](C)[C@@H](O)C[C@@H]1CC[C@@](C)([C@H]2CC[C@@](C)([C@@H](C)O)O2)O1 [Ionomycin]
[10]
  erythrophore pigment response: slight, but sustained aggregation

## COc1ccc(CCN(C)CCCC(C#N)(c2ccc(OC)c(OC)c2)C(C)C)cc1OC (stereo not drawn) [Verapamil]
[10]
  erythrophore pigment response: rapid dispersion; also recorded: disperse almost as completely as possible; also recorded: pigment dispersion; also recorded: larger dispersion

## c1cc2c3c(cccc3c1)CC2 [Acenapthene]
Chromatophores [1]
  Chromatophore response (cell spans the chromatophore columns, cell type not assigned): Imp.

## NCCc1c[nH]c2ccc(O)cc12 [Serotonin]
melanophores
  Chromatophore response Melanophores: Partial

## [Pb] [Pb]
Chromatophores [1]
  Chromatophore response (cell spans the chromatophore columns, cell type not assigned): Imp. (FS)
